These are literature values, as cited in patent US12268663B2, “Method for treating pruritus” (Pruvyc Pharma, LLC, priority 2020, dated 2025).

SMILES strings stand for the structures.

Data set [1] addresses histamine H1 receptor (Homo sapiens, UniProt P35367).
Data set [2] relates to connective tissue mast cells.
Data set [3] deals with serotonin S2 receptor (Homo sapiens, UniProt P28223).
serotonin S2 receptor, sequence (P28223 whole entry): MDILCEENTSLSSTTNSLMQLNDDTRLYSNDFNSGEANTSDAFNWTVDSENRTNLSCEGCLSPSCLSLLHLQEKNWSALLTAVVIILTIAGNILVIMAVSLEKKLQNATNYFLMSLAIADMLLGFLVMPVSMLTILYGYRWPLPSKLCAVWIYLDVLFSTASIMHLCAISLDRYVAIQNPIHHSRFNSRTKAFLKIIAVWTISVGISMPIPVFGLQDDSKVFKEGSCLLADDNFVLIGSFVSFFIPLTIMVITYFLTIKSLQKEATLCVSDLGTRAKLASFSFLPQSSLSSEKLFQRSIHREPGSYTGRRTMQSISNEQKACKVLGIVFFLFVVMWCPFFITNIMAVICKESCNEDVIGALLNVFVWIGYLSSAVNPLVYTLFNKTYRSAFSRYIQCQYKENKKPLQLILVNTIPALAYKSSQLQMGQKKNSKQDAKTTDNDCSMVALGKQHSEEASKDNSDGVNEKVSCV

histamine H1 receptor, sequence (P35367 whole entry): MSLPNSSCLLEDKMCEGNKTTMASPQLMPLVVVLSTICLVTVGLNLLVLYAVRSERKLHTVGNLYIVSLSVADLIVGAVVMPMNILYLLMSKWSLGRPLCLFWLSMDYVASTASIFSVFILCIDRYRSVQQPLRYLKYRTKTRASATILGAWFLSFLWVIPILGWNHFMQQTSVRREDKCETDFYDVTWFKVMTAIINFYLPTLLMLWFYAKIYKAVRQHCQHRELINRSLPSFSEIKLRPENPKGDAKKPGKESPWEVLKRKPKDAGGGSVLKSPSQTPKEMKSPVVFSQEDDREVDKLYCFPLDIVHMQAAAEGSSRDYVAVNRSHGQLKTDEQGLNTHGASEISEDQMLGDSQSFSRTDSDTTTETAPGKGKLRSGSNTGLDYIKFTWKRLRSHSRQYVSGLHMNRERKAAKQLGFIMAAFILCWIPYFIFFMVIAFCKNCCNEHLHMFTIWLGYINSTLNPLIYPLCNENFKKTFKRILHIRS

Take `CN(C)CC/C=C1/c2ccccc2COc2ccc(CC(=O)O)cc21` [Olopatadine, olopatadine]: the “binding to histamine H1 receptor” value in data set [1] is listed as “bind”. Also, the “allergic mediator release from connective tissue mast cells” value in data set [2] was “inhibits allergic mediator release”. The “binding to serotonin S2 receptor” value in data set [3] is reported as “bind”.
